The record followed here is patent US20190010167A1, “INHIBITORS OF THE MENIN-MLL INTERACTION” (Vitae Pharmaceuticals, Inc., priority 2015, published 2019).

Assay [1] addresses T1, wild-type menin / MLL-AF9 fusion protein (Homo sapiens, UniProt O00255).
T1 construct: made in house; host or cells: E. coli (menin); HEK293 cleared lysate (MLL-AF9-FLAG)
T1 sequence (O00255 1-610): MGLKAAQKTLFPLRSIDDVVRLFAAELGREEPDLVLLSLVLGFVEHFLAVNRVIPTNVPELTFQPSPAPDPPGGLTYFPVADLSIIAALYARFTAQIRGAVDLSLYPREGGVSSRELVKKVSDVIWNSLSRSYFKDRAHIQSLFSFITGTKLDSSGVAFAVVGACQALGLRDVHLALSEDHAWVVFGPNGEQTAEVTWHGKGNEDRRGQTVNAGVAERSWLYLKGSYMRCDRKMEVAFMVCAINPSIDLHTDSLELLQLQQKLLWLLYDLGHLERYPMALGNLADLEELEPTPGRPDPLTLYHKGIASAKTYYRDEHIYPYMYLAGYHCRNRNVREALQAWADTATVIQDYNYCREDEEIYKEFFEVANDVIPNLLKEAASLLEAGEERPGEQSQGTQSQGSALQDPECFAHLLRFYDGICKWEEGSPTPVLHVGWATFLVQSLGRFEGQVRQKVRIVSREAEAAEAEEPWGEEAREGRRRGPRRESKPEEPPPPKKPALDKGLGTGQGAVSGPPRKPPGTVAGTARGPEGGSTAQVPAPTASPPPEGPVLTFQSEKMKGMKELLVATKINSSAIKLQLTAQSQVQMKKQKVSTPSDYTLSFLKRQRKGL
The experiment in a line: AlphaLISA menin/MLL binding assay, wild-type menin (Assay 1). To be noted: biotinylated wild-type menin 5 nM, MLL-AF9-FLAG lysate. Put shortly:
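Biotinylated wild-type or mutated menin (5 nM, E. coli-expressed) was preincubated 30 min at RT with compound and HEK293 lysate containing MLL1-1,396–AF9 1-92–FLAG. Buffer was 50 mM Tris-HCl pH 7.4, 5% DMSO, 50 mM NaCl, 0.01% BSA, 1 mM DTT. Anti-FLAG acceptor and streptavidin donor beads (10 μg/mL each) were then added for 60 min. IC50 came from a four-parameter fit of the Alpha signal inhibition.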
For orientation: Alpha assays give light when donor and acceptor beads are brought close together.

Assay [2] concerns the target T2, menin/MLL (Gal4-Menin and MLL1-46-VP16) in HEK293 cells (Homo sapiens, UniProt O00255).
T2 construct: expressed in transfected cells; host or cells: HEK293 (ATCC)
Description: Mammalian cellular two-hybrid assay in HEK293 cells (Assay 2, cell assay). Format: cell-based. As to conditions: Gal4-Menin/MLL1-46-VP16 two-hybrid, NanoLuc luciferase reporter, 16-18 h. As for the experimental part:
Potencies of inhibitor compounds against menin/MLL were tested in a mammalian cellular two-hybrid assay system. HEK293 cells (American Type Culture Collection (ATCC); Manassas, Va.) were co-transfected with three plasmids: one encoding Gal4-Menin (200 ng per 10^6 cells), another encoding MLL1-46-VP16 (100 ng per 10^6 cells), and a reporter plasmid pNL3.3-4×UAS (500 ng per 10^6 cells) encoding secreted NanoLuc® luciferase (Promega) with the upstream 4×UAS repeats for Gal4 binding. Transfection was performed in Opti-MEM® media using Lipofectamine® LTX with Plus™ Reagent (ThermoFisher Scientific) according to manufacturer's protocol. Cells were incubated with transfection reagents at 37° C. 5% CO2 for 5-6 h, harvested by trypsinization and centrifugation at 300×g for 5 min and resuspended in Gibco® DMEM media (phenol red-free, no antibiotics) containing 10% delipidated fetal bovine serum (FBS) (ThermoFisher Scientific). Concentration of cells in the media was adjusted to 3.5×10^5 cells/ml, and 100 μl of the cell suspension was dispensed into each well of 96-well Costar™ black clear bottom cell culture plates (Fisher Scientific). Tested compounds were added as 100 μL of 2× solutions in the media. Final concentration of DMSO was 0.1% in all wells. The cells were incubated with tested compounds at 37° C. 5% CO2 for 16-18 h. At the end of the incubation, 40 μL of the conditioned media from each well was transferred into each well of 96-well Costar™ black half-area plates (Fisher Scientific), to which 40 μl of 2× reconstituted NanoGlo® luciferase assay reagent (Promega) was added and thoroughly mixed on a microshaker for 2-3 min. Remaining media in the culture plates was removed by emptying the wells and blotting the plates on filter paper. The cells were lysed with 1× CellTiter-Glo® Luminescent Cell Viability Assay reagent (Promega) for assessing toxicity of the tested compounds. Both, Nano-Glo® and CellTiter-Glo® luminescence intensities were measured on EnVision® multilabel plate reader (PerkinElmer). Percent inhibition values were calculated based on Nano-Glo® luciferase activity observed with the tested compounds vs. DMSO control and commercially available menin inhibitor MI-2-2 (4-(4-(5,5-Dimethyl-4,5-dihydrothiazol-2-yl)piperazin-1-yl)-6-(2,2,2-trifluoroethyl)thieno[2,3-d]pyrimidine) (EMD Millipore, Cat. No. 444825) incubated with cells at 5 μM. These percent inhibition values were regressed against compound concentrations in the assay using non-linear 4-parameter logit curve fitting (XLFit, IDBS). Half maximal inhibitory concentrations (IC50) were calculated as the parameters of the fit corresponding to the inflection points on semi-logarithmic dose-response curves.
For orientation: A reporter such as luciferase makes a cellular process visible.

Structures are written as SMILES.

T2 sequence (P04386 1-147 partner limits assumed, species assumed, one chain of several): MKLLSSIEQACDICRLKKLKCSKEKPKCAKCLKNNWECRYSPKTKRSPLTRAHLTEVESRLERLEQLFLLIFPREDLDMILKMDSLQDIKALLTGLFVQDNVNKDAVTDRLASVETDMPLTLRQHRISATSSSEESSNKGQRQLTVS

Consider `Cc1c(CN2CCC3(CCN(c4ncnc5sc(CC(F)(F)F)cc45)C3)C2)ccc2[nH]c(C#N)cc12` (racemic) [Example 30, 4-methyl-5-((7-(6-(2,2,2-trifluoroethyl)thieno[2,3-d]pyrimidin-4-yl)-2,7-diazaspiro[4.4]nonan-2-yl)methyl)-1H-indole-2-carbonitrile], for which the half-inhibitory concentration (IC50) in assay [1] and in assay [2] was below 100 nM in each case.
Turning to `Cc1c(CN2CCC3(CCN(c4ncnc5sc(CC(F)(F)F)cc45)C3)C2)ccc2[nH]c(C#N)cc12` (single isomer, unassigned) [Example 30a, 4-methyl-5-((7-(6-(2,2,2-trifluoroethyl)thieno[2,3-d]pyrimidin-4-yl)-2,7-diazaspiro[4.4]nonan-2-yl)methyl)-1H-indole-2-carbonitrile], the half-maximal inhibitory concentration (IC50) in assay [1] and in assay [2] was below 100 nM throughout.
As to `FC(F)(F)Cc1cc2c(N3CCC4(CC3)CN(Cc3ccccc3)C4)ncnc2s1` [Example 1, 4-(2-benzyl-2,7-diazaspiro[3.5]nonan-7-yl)-6-(2,2,2-trifluoroethyl) thieno[2,3-d]pyrimidine], the IC50 in assay [1] and in assay [2] was at least 1000 nM each time.
For the compound `CC(C)CN1CC2(CCN(c3ncnc4sc(CC(F)(F)F)cc34)CC2)C1` [Example 2, 4-(2-isobutyl-2,7-diazaspiro[3.5]nonan-7-yl)-6-(2,2,2-trifluoroethyl)thieno[2,3-d]pyrimidine], the IC50 (in general, the midpoint of a concentration-inhibition curve) is 100 to 1000 nM in assay [1] and at least 1000 nM in assay [2].
In the case of `CC(C)(C)CN1CC2(CCN(c3ncnc4sc(CC(F)(F)F)cc34)CC2)C1` [Example 18, 4-(2-neopentyl-2,7-diazaspiro[3.5]nonan-7-yl)-6-(2,2,2-trifluoroethyl)thieno[2,3-d]pyrimidine], the half-inhibitory concentration (IC50) in assay [1] is 100 to 1000 nM; in assay [2], at least 1000 nM.
For `N#Cc1ccc2c(CN3CC4(CCN(c5ncnc6sc(CC(F)(F)F)cc56)CC4)C3)c[nH]c2c1` [Example 20, 3-((7-(6-(2,2,2-trifluoroethyl)thieno[2,3-d]pyrimidin-4-yl)-2,7-diazaspiro[3.5]nonan-2-yl)methyl)-1H-indole-6-carbonitrile], the half-inhibitory concentration (IC50) in assay [1] is 100 to 1000 nM; in assay [2], at least 1000 nM.
Regarding `CCC(C)CN1CC2(CCN(c3ncnc4sc(CC(F)(F)F)cc34)CC2)C1` (centres unmarked) [Example 22, 4-(2-(2-methylbutyl)-2,7-diazaspiro[3.5]nonan-7-yl)-6-(2,2,2-trifluoroethyl)thieno[2,3-d]pyrimidine], the concentration for half-maximal inhibition (IC50) in assay [1] is 100 to 1000 nM; in assay [2] it was at least 1000 nM.
As for `FC(F)(F)Cc1cc2c(N3CCC4(CCN(Cc5ccccc5)C4)CC3)ncnc2s1` [Example 23, 4-(2-benzyl-2,8-diazaspiro[4.5]decan-8-yl)-6-(2,2,2-trifluoroethyl)thieno[2,3-d]pyrimidine], the IC50 was 100 to 1000 nM in assay [1] and at least 1000 nM in assay [2].
In the case of `CC(C)CN1CCC2(CCN(c3ncnc4sc(CC(F)(F)F)cc34)CC2)C1` [Example 24, 4-(2-isobutyl-2,8-diazaspiro[4.5]decan-8-yl)-6-(2,2,2-trifluoroethyl)thieno[2,3-d]pyrimidine], the results for the half-inhibitory concentration (IC50) in assay [1] and in assay [2] were 100 to 1000 nM and at least 1000 nM, respectively.
As to `Cc1c(CN2CCC3(CCN(c4ncnc5sc(CC(F)(F)F)cc45)CC3)C2)ccc2[nH]c(C#N)cc12` [Example 26, 4-methyl-5-((8-(6-(2,2,2-trifluoroethyl)thieno[2,3-d]pyrimidin-4-yl)-2,8-diazaspiro[4.5]decan-2-yl)methyl)-1H-indole-2-carbonitrile], the results for the IC50 in assay [1] and in assay [2] were below 100 nM and 100 to 1000 nM, respectively.
`FC(F)(F)Cc1cc2c(N3CCC4(CCN(Cc5ccc6[nH]ccc6c5)C4)C3)ncnc2s1` (centres unmarked) [Example 28, 4-(7-((1H-indol-5-yl)methyl)-2,7-diazaspiro[4.4]nonan-2-yl)-6-(2,2,2-trifluoroethyl)thieno[2,3-d]pyrimidine]: the 50% inhibitory concentration (IC50) in assay [1] is below 100 nM; in assay [2], 100 to 1000 nM.
For the compound `FC(F)(F)Cc1cc2c(N3CCC4(CCN(Cc5ccc6cc[nH]c6c5)C4)C3)ncnc2s1` (centres unmarked) [Example 29, 4-(7-((1H-indol-6-yl)methyl)-2,7-diazaspiro[4.4]nonan-2-yl)-6-(2,2,2-trifluoroethyl)thieno[2,3-d]pyrimidine], the IC50 in assay [1] is below 100 nM; in assay [2] it was 100 to 1000 nM.
Turning to `N#Cc1ccc(CN2CCC3(CCN(c4ncnc5sc(CC(F)(F)F)cc45)C3)C2)cc1` (centres unmarked) [Example 33, 4-((7-(6-(2,2,2-trifluoroethyl)thieno[2,3-d]pyrimidin-4-yl)-2,7-diazaspiro[4.4]nonan-2-yl)methyl)benzonitrile], the concentration for half-maximal inhibition (IC50) was below 100 nM in assay [1] and 100 to 1000 nM in assay [2].
For the compound `CC(=O)Nc1ccc(CN2CCC3(CCN(c4ncnc5sc(CC(F)(F)F)cc45)C3)C2)cc1` (centres unmarked) [Example 34, N-(4-((7-(6-(2,2,2-trifluoroethyl)thieno[2,3-d]pyrimidin-4-yl)-2,7-diazaspiro[4.4]nonan-2-yl)methyl)phenyl)acetamide], the half-inhibitory concentration (IC50) in assay [1] was below 100 nM; in assay [2], 100 to 1000 nM.
Consider `CS(=O)(=O)Nc1ccc(CN2CCC3(CCN(c4ncnc5sc(CC(F)(F)F)cc45)C3)C2)cc1` (centres unmarked) [Example 38, N-(4-((7-(6-(2,2,2-trifluoroethyl)thieno[2,3-d]pyrimidin-4-yl)-2,7-diazaspiro[4.4]nonan-2-yl)methyl)phenyl)methanesulfonamide], for which the IC50 in assay [1] was below 100 nM; in assay [2], 100 to 1000 nM.
As for `CCC(C)CN1CCC2(CC1)CCN(c1ncnc3sc(CC(F)(F)F)cc13)C2` (centres unmarked) [Example 114, 4-(8-(2-methylbutyl)-2,8-diazaspiro[4.5]decan-2-yl)-6-(2,2,2-trifluoroethyl)thieno[2,3-d]pyrimidine], in assay [1], the concentration for half-maximal inhibition (IC50) was 100 to 1000 nM.
On to `FC(F)(F)Cc1cc2c(N3CCC4(CCN(CC5CCOCC5)CC4)C3)ncnc2s1` [Example 115, 4-(8-((tetrahydro-2H-pyran-4-yl)methyl)-2,8-diazaspiro[4.5]decan-2-yl)-6-(2,2,2-trifluoroethyl)thieno[2,3-d]pyrimidine], for which the IC50 in assay [1] is 100 to 1000 nM.
Same read-out and setting: the figure for `FC(F)(F)Cc1cc2c(N3CCC4(CCN(Cc5ccccc5)CC4)C3)ncnc2s1` [Example 116, 4-(8-benzyl-2,8-diazaspiro[4.5]decan-2-yl)-6-(2,2,2-trifluoroethyl)thieno[2,3-d]pyrimidine] is at least 1000 nM.
Regarding `Cc1c(CN2CCC3(CC2)CCN(c2ncnc4sc(CC(F)(F)F)cc24)C3)ccc2[nH]c(C#N)cc12` [Example 117, 4-methyl-5-((2-(6-(2,2,2-trifluoroethyl)thieno[2,3-d]pyrimidin-4-yl)-2,8-diazaspiro[4.5]decan-8-yl)methyl)-1H-indole-2-carbonitrile], the IC50 in assay [1] is at least 1000 nM.
`O=C1CC2(CCN(Cc3ccc4[nH]c(=O)[nH]c4c3)C2)CN1c1ncnc2sc(CC(F)(F)F)cc12` (centres unmarked) [Example 118, 7-((2-oxo-2,3-dihydro-1H-benzoldlimidazol-5-yl)methyl)-2-(6-(2,2,2-trifluoroethyl)thieno[2,3-d]pyrimidin-4-yl)-2,7-diazaspiro[4.4]nonan-3-one] yielded a 50% inhibitory concentration (IC50) in assay [1] of 100 to 1000 nM.
